Patent US20150344540A1, “NOVEL GLP-1 RECEPTOR AGONISTS WITH CHOLESTEROL EFFLUX ACTIVITY” (NOVO NORDISK A/S, priority 2012, published 2015)
Where two headings read alike, the source gives them in different places. Where a SMILES comes first, the peptide text is derived from it. Where no end group is shown, it is not given here. [ ]: non-standard residue; d: D form. Aib = CC(C)(N)C(=O)O

Experiments:
[1] = test system: Mouse monocyte/macrophage cell line, RAW 264.7; test: Cholesterol efflux assay (3H-cholesterol, macrophage cell line); assay type: cell-based; conditions: RAW 264.7, 4 hrs incubation, 0.1% human serum albumin; for 4 h Cholesterol Efflux Emax: ABCA1-mediated efflux; for EC50: read-out: 4 h Cholesterol Efflux EC50, ABCA1-mediated efflux (CPT-cAMP induced minus non-induced)
human GLP-1 receptor = human GLP-1 receptor (Homo sapiens, UniProt P43220); test: Functional GLP-1 receptor assay, in vitro potency (CRE luciferase; whole cells); assay type: cell-based
Chain of human GLP-1 receptor (P43220 24-463): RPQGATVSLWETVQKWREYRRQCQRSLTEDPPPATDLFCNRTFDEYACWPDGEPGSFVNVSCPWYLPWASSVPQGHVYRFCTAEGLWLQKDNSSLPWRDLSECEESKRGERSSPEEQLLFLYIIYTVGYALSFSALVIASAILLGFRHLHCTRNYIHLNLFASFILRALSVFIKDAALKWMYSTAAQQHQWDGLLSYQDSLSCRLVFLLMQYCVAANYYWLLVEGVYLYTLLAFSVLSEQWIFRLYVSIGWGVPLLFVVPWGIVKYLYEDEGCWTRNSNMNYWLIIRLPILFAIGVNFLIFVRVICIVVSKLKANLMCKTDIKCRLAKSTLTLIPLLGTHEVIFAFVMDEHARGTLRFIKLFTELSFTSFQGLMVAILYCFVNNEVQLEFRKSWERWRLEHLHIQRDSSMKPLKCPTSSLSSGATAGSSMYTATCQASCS

[2] = BHK cells expressing human GLP-1 receptor, 0% HSA, read-out: GLP1R CRE luc 0% HSA EC50 Mean Value
[3] = GLP1R CRE luc 1% HSA EC50 Mean Value, BHK cells expressing human GLP-1 receptor, 1% HSA

| EC50 (human GLP-1 receptor; [3]) | Compound | 4 h Cholesterol Efflux Emax [1] | other results |
| --- | --- | --- | --- |
| 0.004 nM | CC[C@H](C)[C@H](NC(=O)[C@H](Cc1ccccc1)NC(=O)[C@H](CCC(=O)O)NC(=O)[C@H](CCCCN)NC(=O)[C@@H](NC(=O)[C@H](C)NC(=O)[C@H](CCC(=O)O)NC(=O)CNC(=O)[C@H](CCC(=O)O)NC(=O)[C@H](CC(C)C)NC(=O)[C@H](Cc1ccc(O)cc1)NC(=O)[C@H](CO)NC(=O)[C@H](CO)NC(=O)[C@@H](NC(=O)[C@H](CC(=O)O)NC(=O)[C@H](CO)NC(=O)[C@@H](NC(=O)[C@H](Cc1ccccc1)NC(=O)[C@@H](NC(=O)CNC(=O)[C@H](CCC(=O)O)NC(=O)C(C)(C)NC(=O)[C@@H](N)Cc1c[nH]cn1)[C@@H](C)O)[C@@H](C)O)C(C)C)C(C)C)C(=O)N[C@@H](C)C(=O)N[C@@H](Cc1c[nH]c2ccccc12)C(=O)N[C@@H](CC(C)C)C(=O)N[C@H](C(=O)NCC(=O)NC(C)(C)C(=O)N[C@@H](CCCCN)C(=O)N[C@@H](CCC(=O)O)C(=O)N[C@@H](Cc1ccccc1)C(=O)N[C@@H](CC(C)C)C(N)=O)C(C)C [Compound 10] (H-H[Aib]EGTFTSDVSSYLEGEAVKEFIAWLVG[Aib]KEFL-NH2) | 79% | EC50 (human GLP-1 receptor; [2]): 0.01 nM |
|  | CC[C@H](C)[C@H](NC(=O)[C@H](Cc1ccccc1)NC(=O)[C@H](CCC(=O)O)NC(=O)[C@H](CCCCN)NC(=O)[C@@H](NC(=O)[C@H](C)NC(=O)[C@H](CCC(=O)O)NC(=O)CNC(=O)[C@H](CCC(=O)O)NC(=O)[C@H](CC(C)C)NC(=O)[C@H](Cc1ccc(O)cc1)NC(=O)[C@H](CO)NC(=O)[C@H](CO)NC(=O)[C@@H](NC(=O)[C@H](CC(=O)O)NC(=O)[C@H](CO)NC(=O)[C@@H](NC(=O)[C@H](CC(C)C)NC(=O)[C@@H](NC(=O)CNC(=O)[C@H](CC(=O)O)NC(=O)[C@H](C)NC(=O)[C@@H](N)Cc1c[nH]cn1)[C@@H](C)O)[C@@H](C)O)[C@@H](C)CC)C(C)C)C(=O)N[C@@H](C)C(=O)N[C@@H](Cc1c[nH]c2ccccc12)C(=O)N[C@@H](CC(C)C)C(=O)N[C@H](C(=O)N[C@@H](CCC(=O)O)C(=O)N[C@@H](CCCCN)C(=O)NC(C)(C)C(=O)N[C@@H](CCCCN)C(=O)N[C@@H](CCC(=O)O)C(=O)N[C@@H](Cc1ccccc1)C(=O)N[C@@H](CC(C)C)C(N)=O)C(C)C [Compound 14, [Asp9,Leu12,Ile16,Glu23,Val25,Glu34,Lys35,Aib36,Lys37]-GLP-1-(7-37)-peptidyl-Glu-Phe-Leu amide] (H-HADGTLTSDISSYLEGEAVKEFIAWLVEK[Aib]KEFL-NH2; N-terminus assumed) |  | EC50 [1]: 300 nM; EC50 (human GLP-1 receptor; GLP1R CRE luc 1% HSA EC50 Mean Value): 0.062 nM |
| 0.02 nM | CC[C@H](C)[C@H](NC(=O)[C@H](Cc1ccccc1)NC(=O)[C@H](CCC(=O)O)NC(=O)[C@H](CCCCN)NC(=O)[C@@H](NC(=O)[C@H](C)NC(=O)[C@H](CCC(=O)O)NC(=O)CNC(=O)[C@H](CCC(=O)O)NC(=O)[C@H](CC(C)C)NC(=O)[C@H](Cc1ccc(O)cc1)NC(=O)[C@H](CO)NC(=O)[C@H](CO)NC(=O)[C@@H](NC(=O)[C@H](CC(=O)O)NC(=O)[C@H](CO)NC(=O)[C@@H](NC(=O)[C@H](Cc1ccccc1)NC(=O)[C@@H](NC(=O)CNC(=O)[C@H](CCC(=O)O)NC(=O)C(C)(C)NC(=O)[C@@H](N)Cc1c[nH]cn1)[C@@H](C)O)[C@@H](C)O)C(C)C)C(C)C)C(=O)N[C@@H](C)C(=O)N[C@@H](Cc1c[nH]cn1)C(=O)N[C@@H](CC(C)C)C(=O)N[C@H](C(=O)N[C@@H](CCC(=O)O)C(=O)N[C@@H](CCCCN)C(=O)NC(C)(C)C(=O)N[C@@H](CCCCN)C(=O)N[C@@H](CCC(=O)O)C(=O)N[C@@H](Cc1ccccc1)C(=O)N[C@@H](CC(C)C)C(N)=O)C(C)C [Compound 17, [Aib8,Glu23,Val25,His31,Glu34,Lys35,Aib36,Lys37]-GLP-1-(7-37)-peptidyl-Glu-Phe-Leu amide] (H-H[Aib]EGTFTSDVSSYLEGEAVKEFIAHLVEK[Aib]KEFL-NH2) | 102% |  |
| 0.908 nM | CC(C)C[C@H](NC(=O)[C@H](Cc1ccccc1)NC(=O)[C@H](CCC(=O)O)NC(=O)[C@H](CCCCN)NC(=O)C(C)(C)NC(=O)[C@H](CCCCN)NC(=O)[C@H](CCC(=O)O)NC(=O)[C@H](CC(C)C)NC(=O)[C@H](CC(C)C)NC(=O)[C@H](Cc1c[nH]c2ccccc12)NC(=O)[C@H](CCC(N)=O)NC(=O)[C@@H](NC(=O)[C@H](Cc1ccccc1)NC(=O)[C@H](CCC(=O)O)NC(=O)[C@H](CCCNC(=N)N)NC(=O)[C@H](C)NC(=O)[C@H](C)NC(=O)[C@H](CCCCN)NC(=O)CNC(=O)[C@H](CC(=O)O)NC(=O)[C@H](CC(C)C)NC(=O)[C@H](Cc1ccc(O)cc1)NC(=O)[C@H](CCCCN)NC(=O)[C@H](CO)NC(=O)[C@H](Cc1ccc(O)cc1)NC(=O)[C@H](CC(=O)O)NC(=O)[C@H](CO)NC(=O)[C@@H](NC(=O)[C@H](Cc1ccccc1)NC(=O)[C@@H](NC(=O)CNC(=O)[C@H](CCC(N)=O)NC(=O)C(C)(C)NC(=O)[C@@H](N)Cc1c[nH]cn1)[C@@H](C)O)[C@@H](C)O)C(C)C)C(N)=O [Compound 24] (H-H[Aib]QGTFTSDYSKYLDGKAAREFVQWLLEK[Aib]KEFL-NH2) | 82% | EC50 (human GLP-1 receptor; [2]): 1.63 nM |
| 0.297 nM | CC(C)C[C@H](NC(=O)[C@H](Cc1ccccc1)NC(=O)[C@H](CCC(=O)O)NC(=O)[C@H](CCCCN)NC(=O)C(C)(C)NC(=O)[C@H](CCCCN)NC(=O)[C@H](CCC(=O)O)NC(=O)[C@H](CC(C)C)NC(=O)[C@H](CC(C)C)NC(=O)[C@H](Cc1c[nH]c2ccccc12)NC(=O)[C@H](CCC(N)=O)NC(=O)[C@@H](NC(=O)[C@H](Cc1ccccc1)NC(=O)[C@H](CCC(=O)O)NC(=O)[C@H](CCCNC(=N)N)NC(=O)[C@H](C)NC(=O)[C@H](CCCNC(=N)N)NC(=O)[C@H](CCCCN)NC(=O)CNC(=O)[C@H](CC(=O)O)NC(=O)[C@H](CC(C)C)NC(=O)[C@H](Cc1ccc(O)cc1)NC(=O)[C@H](CCCCN)NC(=O)[C@H](CO)NC(=O)[C@H](Cc1ccc(O)cc1)NC(=O)[C@H](CC(=O)O)NC(=O)[C@H](CO)NC(=O)[C@@H](NC(=O)[C@H](Cc1ccccc1)NC(=O)[C@@H](NC(=O)CNC(=O)[C@H](CCC(N)=O)NC(=O)C(C)(C)NC(=O)[C@@H](N)Cc1c[nH]cn1)[C@@H](C)O)[C@@H](C)O)C(C)C)C(N)=O [Compound 25] (H-H[Aib]QGTFTSDYSKYLDGKRAREFVQWLLEK[Aib]KEFL-NH2) | 68% | EC50 (human GLP-1 receptor; [2]): 0.591 nM |
|  | CC[C@H](C)[C@H](NC(=O)[C@H](Cc1ccccc1)NC(=O)[C@H](CCC(=O)O)NC(=O)[C@H](CCCCN)NC(=O)[C@@H](NC(=O)[C@H](C)NC(=O)[C@H](CCC(=O)O)NC(=O)CNC(=O)[C@H](CCC(=O)O)NC(=O)[C@H](CC(C)C)NC(=O)[C@H](Cc1ccc(O)cc1)NC(=O)[C@H](CO)NC(=O)[C@H](CO)NC(=O)[C@@H](NC(=O)[C@H](CC(=O)O)NC(=O)[C@H](CO)NC(=O)[C@@H](NC(=O)[C@H](Cc1ccccc1)NC(=O)[C@@H](NC(=O)CNC(=O)[C@H](CCC(=O)O)NC(=O)C(C)(C)NC(=O)[C@@H](N)Cc1c[nH]cn1)[C@@H](C)O)[C@@H](C)O)C(C)C)C(C)C)C(=O)N[C@@H](C)C(=O)N[C@@H](Cc1c[nH]c2ccccc12)C(=O)N[C@@H](CC(C)C)C(=O)N[C@H](C(=O)N[C@@H](CCC(=O)O)C(=O)N[C@@H](CCCCN)C(=O)N[C@H](C(=O)N[C@@H](CCCCN)C(=O)N[C@@H](CCC(=O)O)C(=O)N[C@@H](CC(C)C)C(=O)N[C@@H](CC(C)C)C(N)=O)C(C)C)C(C)C [Compound 119, [Aib8,Glu23,Val25,Glu34,Lys35,Val36,Lys37]-GLP-1-(7-37)-peptidyl-Glu-Leu-Leu amide] (H-H[Aib]EGTFTSDVSSYLEGEAVKEFIAWLVEKVKELL-NH2) | 117% |  |
|  | CC[C@H](C)[C@H](NC(=O)[C@H](Cc1ccccc1)NC(=O)[C@H](CCC(=O)O)NC(=O)[C@H](CCCCN)NC(=O)[C@H](C)NC(=O)[C@H](C)NC(=O)[C@H](CCC(N)=O)NC(=O)CNC(=O)[C@H](CCC(=O)O)NC(=O)[C@H](CC(C)C)NC(=O)[C@H](Cc1ccc(O)cc1)NC(=O)[C@H](CO)NC(=O)[C@H](CO)NC(=O)[C@@H](NC(=O)[C@H](CC(=O)O)NC(=O)[C@H](CO)NC(=O)[C@@H](NC(=O)[C@H](Cc1ccccc1)NC(=O)[C@@H](NC(=O)CNC(=O)[C@H](CCC(=O)O)NC(=O)[C@H](C)NC(=O)[C@@H](N)Cc1c[nH]cn1)[C@@H](C)O)[C@@H](C)O)C(C)C)C(=O)N[C@@H](C)C(=O)N[C@@H](Cc1c[nH]c2ccccc12)C(=O)N[C@@H](CC(C)C)C(=O)N[C@H](C(=O)N[C@@H](CCCCN)C(=O)NCC(=O)N[C@@H](CCCNC(=N)N)C(=O)NCC(=O)O)C(C)C [GLP-1(7-37), reference compound] | <10% |  |
|  | Ac-DWFKAFYDKVAEKFKEAF-NH2 (N-terminus and C-terminus assumed) [Compound L-4F, reference compound] | 108% |  |
|  | H-HAEGTFTSDVSSYLEGEAVKEFIAWLVEKVKEHLEK-OH [Compound 125, [Glu23,Val25,Glu34,Lys35,Val36,Lys37]-GLP-1-(7-37)-peptidyl-Glu-His-Leu-Glu-Lys] | 111% |  |
|  | H-HAEGTFTSDVSSYLEGQAAKEFIAWLVEKVKEHLEK-OH [Compound 126, [Glu34,Lys35,Val36,Lys37]-GLP-1-(7-37)-peptidyl-Glu-His-Leu-Glu-Lys] | 102% |  |
|  | H-HGEGTFTSDVSSYLEGEAVKEFIAWLVEKVKEFLG-OH [Compound 92, [Gly8,Glu23,Val25,Glu34,Lys35,Val36,Lys37]-GLP-1-(7-37)-peptidyl-Glu-Phe-Leu-Gly] | 129% |  |
|  | HAQGTFTSDYSKYLDSKAAREFVQWLLEKVKEFL-NH2 [Compound 68] |  | EC50 [1]: 270 nM |
